From the supplement of paper PMC10307832 come the findings set out here.

Common to all, as to experiment: relative viability (nuclei count vs DMSO), 5 days (fraction); higher = more cells survive
Compound in experiment [1]: CCN(CCO)CCCC(C)Nc1ccnc2cc(Cl)ccc12 [Hydroxychloroquine] + COc1cccc2cc(-c3nc([C@H]4CC[C@H](C(=O)O)CC4)n4ncnc(N)c34)[nH]c12 [OSI-027] (partner 0.5 µM)
Put shortly: (§1)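 Relative viability is defined as nuclei in treated wells over nuclei in vehicle wells. Duplicate plates were run and medians reported. Lung cancer cell lines in 1536-well plates were dosed by pin tool one day after seeding, with one drug or with a fixed anchor-drug dose plus five library-drug doses (not always all listed) in √10 steps, and nuclei were counted after 5 days.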

Compound in experiment [2]: CCN(CCO)CCCC(C)Nc1ccnc2cc(Cl)ccc12 [Hydroxychloroquine] + CC(=O)Nc1cccc(-n2c(=O)n(C3CC3)c(=O)c3c(Nc4ccc(I)cc4F)n(C)c(=O)c(C)c32)c1 [Trametinib] (partner 0.02 µM)
Put shortly:
as §1

Compound in experiment [3]: CCN(CCO)CCCC(C)Nc1ccnc2cc(Cl)ccc12 [Hydroxychloroquine] + C[C@]1(O)C[C@@H](c2nc(-c3ccc4ccc(-c5ccccc5)nc4c3)c3c(N)nccn32)C1 [Linsitinib] (partner 1 µM)
Put shortly:
as §1

Compound in experiment [4]: CCN(CCO)CCCC(C)Nc1ccnc2cc(Cl)ccc12 [Hydroxychloroquine] + CS(=O)(=O)CCNCc1ccc(-c2ccc3ncnc(Nc4ccc(OCc5cccc(F)c5)c(Cl)c4)c3c2)o1 [Lapatinib] (partner 2 µM)
In outline:
as §1

Take NCI-H2085: the relative viability in experiment [1] (first compound 0.5 µM) amounted to 0.788; in experiment [1] (first compound 1.581 µM) it was 0.557; in experiment [1] (first compound 5 µM), 0.625; in experiment [1] (first compound 15.81 µM), 0.693; in experiment [1] (first compound 50 µM), 0.821; in experiment [2] (first compound 0.5 µM) it was 0.7. Besides, the relative viability in experiment [2] (first compound 1.581 µM) is 0.527; in experiment [2] (first compound 5 µM), 0.619; in experiment [2] (first compound 15.81 µM), 0.518; in experiment [2] (first compound 50 µM) it was 0.53; in experiment [3] (first compound 0.5 µM), 0.891; in experiment [3] (first compound 1.581 µM), 0.788. In addition, the relative viability in experiment [3] (first compound 5 µM) is 0.938; in experiment [3] (first compound 15.81 µM), 0.941; in experiment [3] (first compound 50 µM) it was 0.883; in experiment [4] (first compound 0.5 µM) it was 0.83; in experiment [4] (first compound 1.581 µM), 0.666; in experiment [4] (first compound 5 µM), 0.832. The relative viability in experiment [4] (first compound 15.81 µM) is 0.742; in experiment [4] (first compound 50 µM) it was 0.873.

As for NCI-H2087, the relative viability turned out to be 0.584 in experiment [1] (first compound 0.5 µM); 0.375 in experiment [1] (first compound 1.581 µM); 0.529 in experiment [1] (first compound 5 µM); 0.672 in experiment [1] (first compound 15.81 µM); 0.78 in experiment [1] (first compound 50 µM); 0.202 in experiment [2] (first compound 0.5 µM). Further, the relative viability in experiment [2] (first compound 1.581 µM) amounted to 0.234; in experiment [2] (first compound 5 µM), 0.187; in experiment [2] (first compound 15.81 µM), 0.193; in experiment [2] (first compound 50 µM), 0.238; in experiment [3] (first compound 0.5 µM), 1.01; in experiment [3] (first compound 1.581 µM) it was 0.887. Further, the relative viability in experiment [3] (first compound 5 µM) is 0.893; in experiment [3] (first compound 15.81 µM), 0.951; in experiment [3] (first compound 50 µM) it was 0.965; in experiment [4] (first compound 0.5 µM), 1.11; in experiment [4] (first compound 1.581 µM) it was 0.907; in experiment [4] (first compound 5 µM), 0.942. Moreover, the values for the relative viability in experiment [4] (first compound 15.81 µM) and in experiment [4] (first compound 50 µM) were 0.946 and 1.11, respectively.

As to NCI-H2126, the relative viability in experiment [1] (first compound 0.5 µM) was determined as 0.625; in experiment [1] (first compound 1.581 µM), 0.631; in experiment [1] (first compound 5 µM) it was 0.763; in experiment [1] (first compound 15.81 µM) it was 0.606; in experiment [1] (first compound 50 µM), 0.702; in experiment [2] (first compound 0.5 µM), 0.5. Further, the relative viability stood at 0.516 in experiment [2] (first compound 1.581 µM); 0.603 in experiment [2] (first compound 5 µM); 0.544 in experiment [2] (first compound 15.81 µM); 0.55 in experiment [2] (first compound 50 µM); 0.694 in experiment [3] (first compound 0.5 µM); 0.634 in experiment [3] (first compound 1.581 µM). For the same cell line, the relative viability was determined as 0.681 in experiment [3] (first compound 5 µM); 0.649 in experiment [3] (first compound 15.81 µM); 0.747 in experiment [3] (first compound 50 µM); 0.74 in experiment [4] (first compound 0.5 µM); 0.649 in experiment [4] (first compound 1.581 µM); 0.761 in experiment [4] (first compound 5 µM). For the same cell line, the relative viability in experiment [4] (first compound 15.81 µM) was found to be 0.797; in experiment [4] (first compound 50 µM), 0.816.

Regarding NCI-H2228, the relative viability in experiment [1] (first compound 0.5 µM) is 0.617; in experiment [1] (first compound 1.581 µM), 0.569; in experiment [1] (first compound 5 µM) it was 0.634; in experiment [1] (first compound 15.81 µM), 0.548; in experiment [1] (first compound 50 µM), 0.669; in experiment [2] (first compound 0.5 µM), 0.322. The relative viability in experiment [2] (first compound 1.581 µM) amounted to 0.421; in experiment [2] (first compound 5 µM), 0.654; in experiment [2] (first compound 15.81 µM) it was 0.584; in experiment [2] (first compound 50 µM) it was 0.365; in experiment [3] (first compound 0.5 µM), 0.958; in experiment [3] (first compound 1.581 µM), 0.647. For the same cell line, the relative viability in experiment [3] (first compound 5 µM) came out at 0.706; in experiment [3] (first compound 15.81 µM) it was 0.632; in experiment [3] (first compound 50 µM), 0.703; in experiment [4] (first compound 0.5 µM), 1.05; in experiment [4] (first compound 1.581 µM), 0.999; in experiment [4] (first compound 5 µM) it was 0.972. Further, the relative viability in experiment [4] (first compound 15.81 µM) amounted to 0.705; in experiment [4] (first compound 50 µM), 1.18.

Regarding NCI-H2347, the relative viability in experiment [1] (first compound 0.5 µM) worked out at 0.528; in experiment [1] (first compound 1.581 µM), 0.356; in experiment [1] (first compound 5 µM) it was 0.387; in experiment [1] (first compound 15.81 µM), 0.322; in experiment [1] (first compound 50 µM) it was 0.336; in experiment [2] (first compound 0.5 µM), 0.293. The relative viability in experiment [2] (first compound 1.581 µM) was 0.248; in experiment [2] (first compound 5 µM), 0.272; in experiment [2] (first compound 15.81 µM), 0.281; in experiment [2] (first compound 50 µM), 0.325; in experiment [3] (first compound 0.5 µM) it was 1.05; in experiment [3] (first compound 1.581 µM) it was 0.84. Moreover, the relative viability worked out at 0.932 in experiment [3] (first compound 5 µM); 0.994 in experiment [3] (first compound 15.81 µM); 0.895 in experiment [3] (first compound 50 µM); 0.882 in experiment [4] (first compound 0.5 µM); 0.842 in experiment [4] (first compound 1.581 µM); 1.09 in experiment [4] (first compound 5 µM). Moreover, the relative viability in experiment [4] (first compound 15.81 µM) came to 0.922; in experiment [4] (first compound 50 µM), 0.958.

NCI-H2405: the relative viability is 0.626 in experiment [1] (first compound 0.5 µM); 0.55 in experiment [1] (first compound 1.581 µM); 0.652 in experiment [1] (first compound 5 µM); 0.627 in experiment [1] (first compound 15.81 µM); 0.658 in experiment [1] (first compound 50 µM); 0.668 in experiment [2] (first compound 0.5 µM). The relative viability in experiment [2] (first compound 1.581 µM) worked out at 0.677; in experiment [2] (first compound 5 µM), 0.585; in experiment [2] (first compound 15.81 µM), 0.62; in experiment [2] (first compound 50 µM), 0.615; in experiment [3] (first compound 0.5 µM) it was 0.923; in experiment [3] (first compound 1.581 µM), 0.806. Further, the relative viability in experiment [3] (first compound 5 µM) stood at 0.92; in experiment [3] (first compound 15.81 µM), 0.98; in experiment [3] (first compound 50 µM) it was 0.968; in experiment [4] (first compound 0.5 µM), 1.09; in experiment [4] (first compound 1.581 µM) it was 0.998; in experiment [4] (first compound 5 µM), 1.1. For the same cell line, the relative viability in experiment [4] (first compound 15.81 µM) is 1.04; in experiment [4] (first compound 50 µM) it was 1.15.

Regarding NCI-H3122, the relative viability in experiment [1] (first compound 0.5 µM) was found to be 1.05; in experiment [1] (first compound 1.581 µM), 0.962; in experiment [1] (first compound 5 µM), 1.12; in experiment [1] (first compound 15.81 µM), 1.2; in experiment [1] (first compound 50 µM), 1.18; in experiment [2] (first compound 0.5 µM), 0.19. Moreover, the relative viability worked out at 0.215 in experiment [2] (first compound 1.581 µM); 0.2 in experiment [2] (first compound 5 µM); 0.319 in experiment [2] (first compound 15.81 µM); 0.232 in experiment [2] (first compound 50 µM); 1.05 in experiment [3] (first compound 0.5 µM); 1 in experiment [3] (first compound 1.581 µM). Besides, the relative viability is 0.953 in experiment [3] (first compound 5 µM); 1.05 in experiment [3] (first compound 15.81 µM); 1.07 in experiment [3] (first compound 50 µM); 1.02 in experiment [4] (first compound 0.5 µM); 1.01 in experiment [4] (first compound 1.581 µM); 1.05 in experiment [4] (first compound 5 µM). Besides, the relative viability in experiment [4] (first compound 15.81 µM) is 1; in experiment [4] (first compound 50 µM), 1.07.
